According to publication PMC8510480, “Searching Anti-Zika Virus Activity in 1H-1,2,3-Triazole Based Compounds” (Molecules, 2021):
Where “and” joins values, the source holds several entries; their conditions need not be identical. Equal entries are not always repeated. Where two headings read alike, the source gives them in different places.

Legend:
[1] = system: macrophages (peritoneal and J774A.1) and fibroblast cells; design: method as in PMID 33339081; details: ref [28]; cited from earlier work
[2] = Cytotoxicity test with MTT method in Vero cells; assay type: cell-based, African green monkey; details: African green monkey, 5 days, read-out: CC50 (50% cytotoxic concentration)
Method: (§1) The cytotoxicity of compounds 1–7 to Vero cells, an epithelial cell line derived from the kidney of an African green monkey, was tested using the 3-(4,5-dimethylthiazol-2-yl)-2,5-diphenyltetrazolium bromide (MTT) method. […] Based on CC20 values, which was the maximum concentration used for antiviral screening, 3b compound was the least toxic with a value of 527.2 µM. Compounds 2a and 2b were the most cytotoxic with values of 8.87 µM and 9.89 µM, respectively. […] The results from compounds 3a, 3b and 4a, 4b ranged from 40.69 to 527.20 µM. […] The presence of phthalimide group or sugar increases the values of CC20 and CC50 (Table 2 and Supplementary Material: Figure S1).
(§2) 96-well plates with 1 × 10^4 cell/well were used in this assay and prepared 24 h previously. The compounds were diluted in a 2:1 ratio so that a maximum of 0.8% DMSO was used. The concentrations used were 800, 400, 200, 100, 50, 25 and 12.5 µM. Dilutions were added to the wells in triplicate and incubated at 37 °C and 5% CO2 atmosphere. After 5 days, the wells were emptied and a 50 µL of 1 mg/mL MTT (3-(4,5-dimethylthiazol-2-yl)-2,5-diphenyltetrazolium bromide) (Sigma-Aldrich) solution was added, and the cells were incubated for 3–4 h for formation of formazan crystals through the mitochondria of viable cells. Then, medium was removed and 100 µL DMSO was added to the wells to solubilize the formazan crystals. With the aid of an incubator Tecnal TE-420 (Tecnal Equipamentos Científicos, Piracicaba, São Paulo, Brazil), the plates were homogenized at 120 RPM at 37 °C and the optical densities were read at 570 nm on a spectrophotometer BioTekTM ELx800TM (BioTek Instruments, Winooski, VT, USA).
(§3) The determination of the CC20 and CC50 values was obtained through the linear regression analysis of the XY graph generated by the values of the concentrations used in the test and the triplicate values of the viability. In the post-infection and pre-treatment tests, ANOVA and Dunnett tests were used, considering […] as the minimum significance value. All tests were performed in GraphPad Prism v.6.0 program (GraphPad Software, Inc., San Diego, CA, USA).

Vero cells [3] = experiment: Cytotoxicity test with MTT method in Vero cells; assay type: cell-based, African green monkey; details: for CC20 (20% cytotoxic concentration): 5 days
Method: as §1, §2, §3

Vero cells [4] = system: Vero cells; design: method as in PMID 28803932; details: ref [17], cited from earlier work
ZIKV = experiment: Post-infection test with ZIKV in Vero cells; assay type: cell-based, Zika virus
Method: We then investigated the activity of compound 4b after ZIKV infection in cells. As already noted in the screening test, 4b reduced ZIKV growth to levels similar to 6MMPr, a positive control previously described by our group. As in the pre-treatment test, four different concentrations were used, with the maximum being CC20 (136.90, 68.45, 34.22 and 17.11 µM). […] It is worth highlighting the constant decrease in the viral titer, even in lower concentrations, while the positive control 6MMPr reduces it only in the highest concentrations.
Statistical analysis compared the concentrations of each compound at each collection time (3 d.p.i. and 5 d.p.i.) with a t-test.
Figure 6 Comparison of anti-ZIKV activity between 6MMPr and 4b after three- and five-days post-infection (d.p.i.). 6MMPr and compound 4b were submitted to a post-infection test when Vero cells was infected with ZIKV at MOI 0.1 for 2 h then treated with compounds. Concentrations used in the test corresponded to CC20 (4b = 136.90 µM; 6MMPr = 60.50 µM), CC20/2 (4b = 68.45 µM; 6MMPr = 30.25 µM), CC20/4 (4b = 34.22 µM; 6MMPr = 15.13 µM) and CC20/8 (4b = 17.11 µM; 6MMPr = 7.56 µM). The experiment was done in triplicates and values are the mean and the SD. Statistical analysis was made between compounds using t-test on GraphPad Prism program. * = significative; ns = not statistically significant for p < 0.05. (a) 3 d.p.i. from both compounds. (b) 5 d.p.i. from both compounds.
96-well plates with 1 × 10^4 cell/well were used in this assay and prepared 24 h previously. Seven serial dilutions of the virus were prepared in DMEM + 2% FBS culture medium. After removing the culture medium from the plate, 50 µL of each dilution was added to the wells in several repetitions. The plate was incubated at 37 °C and 5% atm CO2 for 1 h. After this interval, each well of the plate received an additional 100 µL of DMEM + 2% FBS culture medium. The plate was incubated again, in the same parameters, for 5 days. Some columns of the plate were selected for use as a cell control (culture medium only, no virus). The reading was performed in an inverted optical microscope AE2000, Motic (Motic, Kowloon Bay, Hong Kong) counting positives wells by the presence of cytopathic effect and the determination of the sample title was performed with the aid of the Microsoft Office Excel program (Microsoft® Office, Redmond, WA, USA).
48-well plates with 2.5 × 10^4 cells/well were prepared 24 h previously. A ZIKV solution at MOI 0.1 was inoculated into the wells and the cells incubated at 37 °C and 5% CO2 atmosphere. After 2 h, the culture medium was removed, and the wells were washed with 1X PBS. 2:1 dilution of 4b (136.90 µM, 68.45 µM, 34.22 µM and 17.11 µM) and 6MMPr (60.50 µM, 30.25 µM, 15.13 µM and 7.56 µM) were added in triplicate. The cells were again incubated for 72 h and 120 h. The supernatants from the wells were collected and titrated.

Structure (SMILES)	CC50 at 5 days [2] [µM]	CC20 (20% cytotoxic concentration) (Vero cells [3])	further results
O=C1c2ccccc2C(=O)N1CCn1cc(-c2ccccc2)nn1 [4-phenyl-1-[2-(phthalimido-2-yl)ethyl]-1-H-1,2,3-triazole]	–	–	cytotoxicity [1]: low cytotoxicity
CC(C)(O)c1cn(CN2C(=O)c3ccccc3C2=O)nn1 [Compound 1]	680	177.10 µM	–
O=C1C=C(n2cc(CCO)nn2)C(=O)c2ccccc21 [Compound 2a]	38	8.87 µM	–
O=C1C=C(n2cc(CCCO)nn2)C(=O)c2ccccc21 [Compound 2b]	38.8	9.89 µM	–
O=C1C=C(NCc2cn(CN3C(=O)c4ccccc4C3=O)nn2)C(=O)c2ccccc21 [Compound 3a]	470	55.28 µM	–
O=C1C=C(NCc2cn(CCN3C(=O)c4ccccc4C3=O)nn2)C(=O)c2ccccc21 [Compound 3b]	1190	527.2 µM and 527.20 µM	–
O=C1C(Br)=C(NCc2cn(CCCN3C(=O)c4ccccc4C3=O)nn2)C(=O)c2ccccc21 [Compound 4a]	68.8	40.69 µM	–
O=C1C=C(NCCn2cc(CCCO)nn2)C(=O)c2ccccc21 [Compound 5a, 2-[2-(4-(3-Hydroxypropyl)-1H-1,2,3-triazol-1-yl)]-ethylamino-1,4-naphthoquinone]	294	74.85 µM	concentration until which cells remain viable (Vero cells [3]): ≤ 400 µM; melting point: 143 to 145 °C
CC(C)(O)c1cn(CCNC2=CC(=O)c3ccccc3C2=O)nn1 [Compound 5b]	298	66.93 µM	concentration until which cells remain viable (Vero cells [3]): ≤ 400 µM
CSc1ncnc2c1ncn2[C@@H]1O[C@H](CO)[C@@H](O)[C@H]1O [Compound 6MMPr, 6-methylmercaptopurine riboside, reference compound]	–	–	CC50 (Vero cells [4]; read-out: CC50 (50% cytotoxic concentration)): 291 µM; CC20 (20% cytotoxic concentration) (Vero cells [4]): 60.50 µM and 60.5 µM; % Viral Inhibition (ZIKV; 3 d.p.i., CC20 (4b 136.90 µM; 6MMPr 60.50 µM)): 99.8%; % Viral Inhibition (ZIKV; 3 d.p.i., CC20/2 (4b 68.45 µM; 6MMPr 30.25 µM)): 54.4%; % Viral Inhibition (ZIKV; 3 d.p.i., CC20/4 (4b 34.23 µM; 6MMPr 15.13 µM)): 42.7%; % Viral Inhibition (ZIKV; 3 d.p.i., CC20/8 (4b 17.11 µM; 6MMPr 7.6 µM), negative = increased virus titer compared to control): −93.4 * %; % Viral Inhibition (ZIKV; 5 d.p.i., CC20 (4b 136.90 µM; 6MMPr 60.50 µM)): 99.7%; % Viral Inhibition (ZIKV; 5 d.p.i., CC20/2 (4b 68.45 µM; 6MMPr 30.25 µM)): 96.8%; % Viral Inhibition (ZIKV; 5 d.p.i., CC20/4 (4b 34.23 µM; 6MMPr 15.13 µM)): 95.1%; % Viral Inhibition (ZIKV; 5 d.p.i., CC20/8 (4b 17.11 µM; 6MMPr 7.6 µM)): 81.1%; % Viral Inhibition (ZIKV; post-infection test, Table 4, concentration and time not stated): 97.8%; IC50 (ZIKV; post-infection test, ZIKV MOI 0.1, Vero cells, read-out: IC50 (50% inhibition concentration, virus replication)): 24.5 µM; effect on growth of the virus (viral titer) (ZIKV; post-infection, four concentrations from CC20 to CC20/8, 3 and 5 d.p.i.): prevents the growth of the virus in both cases; SI (selectivity index) (ZIKV; ratio between the CC50 and IC50 values): 11.9
CC(=O)OC[C@H]1O[C@H](OCCc2cn(C3=CC(=O)c4ccccc4C3=O)nn2)C=C[C@@H]1OC(C)=O [Compound 6a]	68	39.92 µM	–
CC(=O)OC[C@H]1O[C@H](OCc2cn(C3=CC(=O)c4ccccc4C3=O)nn2)C=C[C@@H]1OC(C)=O [Compound 6b]	48.7	21.18 µM	–
CC(=O)OC[C@H]1O[C@H](OC(C)(C)c2cn(C3=CC(=O)c4ccccc4C3=O)nn2)C=C[C@@H]1OC(C)=O [Compound 6c]	58.1	25.73 µM	–
CC(=O)OC[C@H]1O[C@H](OCCCc2cn(C3=CC(=O)c4ccccc4C3=O)nn2)C=C[C@@H]1OC(C)=O [Compound 6d]	69.5	38.61 µM	–
CC(=O)OCC1OC(n2cc(CNC3=C(Br)C(=O)c4ccccc4C3=O)nn2)C(OC(C)=O)C(OC(C)=O)C1OC(C)=O (centres unmarked) [Compound 7]	334	119.10 µM	–
